From patent publication US9006464B2, “Substituted cyclopentanes having prostaglandin activity” (Allergan, Inc., priority 2007, dated 2015) come the findings set out here.

In test [1] the target is T1, EP4 (Homo sapiens, UniProt P35408). The experiment in a line: EP4 Ca2+ signal assay. The format is cell-based. An excerpt:
(§1) U.S. patent application Ser. No. 11/553,143, filed on Oct. 26, 2006, incorporated by reference herein, describes the methods used to obtain the in vitro data in Table 1 below.

For test [2], the target named is T2, EP2 (Homo sapiens, UniProt P43116). The experiment in a line: EP2 Ca2+ signal assay. The format is cell-based.
Excerpt: as §1

A further test deals with T3, DP (Homo sapiens, UniProt Q13258).
T3 sequence (Q13258 1-359): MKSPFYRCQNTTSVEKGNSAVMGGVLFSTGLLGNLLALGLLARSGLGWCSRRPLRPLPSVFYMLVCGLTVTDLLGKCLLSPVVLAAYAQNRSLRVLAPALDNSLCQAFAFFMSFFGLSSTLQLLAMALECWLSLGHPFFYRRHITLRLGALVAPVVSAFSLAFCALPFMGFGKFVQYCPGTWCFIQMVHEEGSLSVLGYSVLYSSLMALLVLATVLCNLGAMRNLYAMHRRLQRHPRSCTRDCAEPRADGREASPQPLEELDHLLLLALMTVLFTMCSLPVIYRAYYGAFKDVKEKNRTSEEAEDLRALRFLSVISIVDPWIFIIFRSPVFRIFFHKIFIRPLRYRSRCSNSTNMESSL
The experiment in a line: Other receptors Ca2+ assay, DP. The format is cell-based. The settings on record: DP receptor.
Excerpt: as §1

Test [3] addresses T2, EP2. The experiment in a line: EP2 cAMP assay. The class given is cell-based.
Excerpt: as §1
Background: Changes in cAMP serve as a functional read-out for many G protein-coupled receptors.

Test [4] addresses T2, EP2. Put plainly: EP2 binding (Ki).
Excerpt: as §1

The next test deals with T4, EP3 (Homo sapiens, UniProt P43115).
T4 sequence (P43115 1-390): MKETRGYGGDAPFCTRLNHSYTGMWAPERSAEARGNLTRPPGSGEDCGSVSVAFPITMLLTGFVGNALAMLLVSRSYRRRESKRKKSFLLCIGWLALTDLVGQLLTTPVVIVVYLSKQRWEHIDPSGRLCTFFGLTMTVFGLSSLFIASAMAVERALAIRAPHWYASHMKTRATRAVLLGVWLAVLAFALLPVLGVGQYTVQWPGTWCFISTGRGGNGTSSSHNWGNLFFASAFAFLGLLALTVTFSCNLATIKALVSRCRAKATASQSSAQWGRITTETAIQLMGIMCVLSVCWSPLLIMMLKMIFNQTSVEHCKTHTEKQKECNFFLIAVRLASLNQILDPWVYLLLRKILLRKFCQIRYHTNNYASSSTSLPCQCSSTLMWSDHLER
Put plainly: Other receptors Ca2+ assay, EP3. The settings on record: EP3 receptor. The class given is cell-based.
Excerpt: as §1

A further test deals with T5, TP (Homo sapiens, UniProt P21731).
T5 sequence (P21731 1-343): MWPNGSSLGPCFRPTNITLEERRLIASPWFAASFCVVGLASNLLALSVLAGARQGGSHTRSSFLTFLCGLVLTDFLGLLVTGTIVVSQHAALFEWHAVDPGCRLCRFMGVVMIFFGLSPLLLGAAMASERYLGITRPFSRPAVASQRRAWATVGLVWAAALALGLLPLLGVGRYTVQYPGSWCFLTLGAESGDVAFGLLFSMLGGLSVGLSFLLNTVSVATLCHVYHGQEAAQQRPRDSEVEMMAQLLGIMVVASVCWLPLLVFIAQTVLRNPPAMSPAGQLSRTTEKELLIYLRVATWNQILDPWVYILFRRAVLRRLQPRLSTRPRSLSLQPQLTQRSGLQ
Put plainly: Other receptors Ca2+ assay, TP. The class given is cell-based. The settings on record: TP receptor.
Excerpt: as §1

Test [5] concerns the target T1, EP4. Put plainly: EP4 binding (Ki).
Excerpt: as §1

A further test addresses T6, EP1 (Homo sapiens, UniProt P34995).
T6 sequence (P34995 1-402): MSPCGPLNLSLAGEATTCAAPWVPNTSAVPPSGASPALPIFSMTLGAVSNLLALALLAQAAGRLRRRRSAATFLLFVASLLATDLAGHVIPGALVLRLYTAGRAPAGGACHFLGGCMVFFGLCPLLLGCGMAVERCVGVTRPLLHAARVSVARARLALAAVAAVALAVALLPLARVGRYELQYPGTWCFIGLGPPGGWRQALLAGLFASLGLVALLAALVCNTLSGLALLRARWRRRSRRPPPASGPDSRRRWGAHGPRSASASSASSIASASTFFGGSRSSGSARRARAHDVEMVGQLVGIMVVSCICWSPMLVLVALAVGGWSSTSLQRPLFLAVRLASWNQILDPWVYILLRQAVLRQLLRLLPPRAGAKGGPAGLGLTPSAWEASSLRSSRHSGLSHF
The experiment in a line: Other receptors Ca2+ assay, EP1. The note with it: EP1 receptor. The format is cell-based.
Excerpt: as §1

In general, EC50 refers to the concentration needed to bring the measured effect to its halfway point. A low value points to a more potent agent. For orientation: Ki means a measure of affinity in units of concentration, obtained from inhibition or displacement. Low values mean a stronger hold on the target, high ones a looser hold on the target.

Structures are written as SMILES. Where only a bound is given, the exact number is not on record here.

T2 sequence (P43116 whole entry): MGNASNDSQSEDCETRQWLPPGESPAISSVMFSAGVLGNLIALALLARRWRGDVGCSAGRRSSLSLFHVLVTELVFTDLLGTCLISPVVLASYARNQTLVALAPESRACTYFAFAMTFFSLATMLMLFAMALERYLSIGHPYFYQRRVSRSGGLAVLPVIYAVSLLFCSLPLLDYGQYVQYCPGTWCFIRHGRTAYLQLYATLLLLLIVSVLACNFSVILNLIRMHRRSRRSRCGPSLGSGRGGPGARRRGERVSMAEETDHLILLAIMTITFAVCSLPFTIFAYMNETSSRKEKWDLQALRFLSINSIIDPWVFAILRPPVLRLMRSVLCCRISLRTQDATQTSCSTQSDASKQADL
T1 sequence (P35408 whole entry): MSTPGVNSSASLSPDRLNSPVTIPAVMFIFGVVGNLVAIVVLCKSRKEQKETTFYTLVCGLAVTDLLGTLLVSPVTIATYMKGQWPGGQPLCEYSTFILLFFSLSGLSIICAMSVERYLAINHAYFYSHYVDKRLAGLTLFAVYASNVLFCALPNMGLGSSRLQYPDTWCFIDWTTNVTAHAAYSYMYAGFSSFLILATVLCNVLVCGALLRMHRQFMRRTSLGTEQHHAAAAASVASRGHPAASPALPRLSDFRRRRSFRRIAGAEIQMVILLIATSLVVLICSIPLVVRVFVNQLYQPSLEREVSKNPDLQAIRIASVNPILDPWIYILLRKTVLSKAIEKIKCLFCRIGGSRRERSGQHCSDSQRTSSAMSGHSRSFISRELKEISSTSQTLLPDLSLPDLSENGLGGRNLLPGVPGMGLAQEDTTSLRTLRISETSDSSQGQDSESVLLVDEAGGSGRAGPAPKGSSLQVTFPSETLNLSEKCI

Regarding `CCCCC[C@@H]1[C@@H](CCCc2ccc(C(=O)O)s2)[C@H](Cl)C[C@H]1O` [Entry 1, 5-[3-((1R,2R,3R,5R)-5-Chloro-3-hydroxy-2-pentyl-cyclopentyl)-propyl]-thiophene-2-carboxylic acid], the EC50 was found to be 9100 nM on EP4 [1]; 74 nM on EP2 [2]; 2080 nM on DP; 1 nM on EP2 [3]; 1740 nM on EP3; 187 nM on TP. Further, the inhibition constant Ki at EP2 [4] was 6 nM.
On to `O=C(O)c1ccc(CCC[C@@H]2[C@@H](CCCCCCCCO)[C@H](O)C[C@H]2Cl)s1` [Entry 10, 5-{3-[(1R,2R,3R,5R)-5-Chloro-3-hydroxy-2-(8-hydroxy-octyl)-cyclopentyl]-propyl}-thiophene-2-carboxylic acid], for which the EC50 at EP4 [1] is greater than 10000 nM; on EP2 [2] it was 69 nM; on DP it was 6130 nM; on EP2 [3] it was less than 1 nM. This molecule also returned an inhibition constant Ki at EP2 [4] of 5 nM.
With `O=C(O)c1ccc(CCC[C@@H]2[C@@H](CCCCCCCO)[C@H](O)C[C@H]2Cl)s1` [Entry 11, 5-{3-[(1R,2R,3R,5R)-5-Chloro-3-hydroxy-2-(7-hydroxy-heptyl)-cyclopentyl]-propyl}-thiophene-2-carboxylic acid], the EC50 on EP4 [1] is 23700 nM; at EP2 [2] it was 10 nM; on DP it was 1950 nM; at EP2 [3], 0.3 nM. Also, the inhibitory constant (Ki) at EP2 [4] is 9 nM; on EP4 [5], 1520 nM.
Consider `CCCCCC[C@@H]1[C@@H](CCCc2ccc(C(=O)O)s2)[C@H](Cl)C[C@H]1O` [Entry 2, 5-[3-((1R,2R,3R,5R)-5-Chloro-2-hexyl-3-hydroxy-cyclopentyl)-propyl]-thiophene-2-carboxylic acid], for which the EC50 was determined as 9380 nM on EP4 [1]; 405 nM at EP2 [2]; 1780 nM on DP; 0.7 nM at EP2 [3]; 5990 nM on EP3; 2990 nM at TP. Further, the Ki on EP2 [4] came to 4 nM; on EP4 [5], 754 nM.
In the case of `CCCCCC(O)/C=C/[C@@H]1[C@@H](CCCc2ccc(C(=O)O)s2)[C@H](Cl)C[C@H]1O` (single isomer, unassigned) [Entry 16], the half-maximal effective concentration (EC50) turned out to be 86 nM on EP1; 42 nM at EP4 [1]; 26 nM at EP2 [2]; 7730 nM at DP; 5 nM at EP2 [3]; 421 nM on EP3. The Ki is 202 nM at EP2 [4] and 577 nM at EP4 [5].
`CCCCCCCCC=C[C@@H]1[C@@H](CCCc2ccc(C(=O)O)s2)[C@H](Cl)C[C@H]1O` [Entry 9, 5-[3-((1R,2R,3R,5R)-5-Chloro-2-dec-1-enyl-3-hydroxy-cyclopentyl)-propyl]-thiophene-2-carboxylic acid]: the EC50 at EP4 [1] is 34200 nM; on EP2 [2], 512 nM; at DP, 10500 nM; on EP2 [3], 15 nM. Moreover, the figures for the Ki on EP2 [4] and at EP4 [5] were 18 nM and 695 nM, respectively.
In the case of `CCCCCCCC=C[C@@H]1[C@@H](CCCc2ccc(C(=O)O)s2)[C@H](Cl)C[C@H]1O` [Entry 14, 5-[3-((1R,2R,3R,5R)-5-Chloro-3-hydroxy-2-non-1-enyl-cyclopentyl)-propyl]-thiophene-2-carboxylic acid], the EC50 on EP4 [1] is greater than 10000 nM; at EP2 [2] it was 15 nM; at DP, 11700 nM; at EP2 [3], 4 nM; at EP3, 3000 nM. Also, the Ki on EP2 [4] was determined as 6 nM; on EP4 [5], 1110 nM.
As to `CCCC=C[C@@H]1[C@@H](CCCc2ccc(C(=O)O)s2)[C@H](Cl)C[C@H]1O` [Entry 7, 5-[3-((1R,2R,3R,5R)-5-Chloro-3-hydroxy-2-pent-1-enyl-cyclopentyl)-propyl]-thiophene-2-carboxylic acid], the concentration giving a half-maximal response (EC50) on EP4 [1] was determined as 14800 nM; at EP2 [2], 303 nM; at DP, 573 nM; at EP2 [3], 55 nM; at EP3 it was 1160 nM; on TP, 249 nM. Moreover, the affinity at EP2 [4], expressed as Ki, was 60 nM.
For the molecule `O=C(O)c1ccc(CCC[C@@H]2[C@@H](C=CCCCCCCO)[C@H](O)C[C@H]2Cl)s1` [Entry 6, 5-{3-[(1R,2R,3R,5R)-5-Chloro-3-hydroxy-2-(8-hydroxy-oct-1-enyl)-cyclopentyl]-propyl}-thiophene-2-carboxylic acid], the EC50 was greater than 10000 nM at EP1, 531 nM at EP2 [2], 1000 nM on DP and 14 nM on EP2 [3]. This molecule gave an inhibition constant Ki at EP2 [4] of 37 nM.
Regarding `CCCCCCCCCC[C@@H]1[C@@H](CCCc2ccc(C(=O)O)s2)[C@H](Cl)C[C@H]1O` [Entry 19, 5-(3-((1R,2R,3R,5R)-5-chloro-2-decyl-3-hydroxycyclopentyl)propyl)thiophene-2-carboxylic acid], the half-maximal effective concentration (EC50) on EP4 [1] is greater than 10000 nM; at EP2 [2], 1160 nM; at EP2 [3], 2 nM. Further, the results for the Ki on EP2 [4] and on EP4 [5] were 6 nM and 7100 nM, respectively.
`CCCC/C=C/CC[C@@H]1[C@@H](CCCc2ccc(C(=O)O)s2)[C@H](Cl)C[C@H]1O` [Entry 18, 5-(3-((1R,2R,3R,5R)-5-chloro-3-hydroxy-2-((E)-oct-3-enyl)cyclopentyl)propyl)thiophene-2-carboxylic acid]: the EC50 on EP1 is 4930 nM; on EP4 [1], 713 nM; on EP2 [2], 51 nM; on DP, 2800 nM; on EP2 [3], 2 nM; at EP3, 593 nM. The molecule also yielded a Ki at EP2 [4] of 18 nM.
With `O=C(O)c1ccc(CCC[C@@H]2[C@@H](C=CCCCCCO)[C@H](O)C[C@H]2Cl)s1` [Entry 13, 5-{3-[(1R,2R,3R,5R)-5-Chloro-3-hydroxy-2-(7-hydroxy-hept-1-enyl)-cyclopentyl]-propyl}-thiophene-2-carboxylic acid], the concentration giving a half-maximal response (EC50) on EP4 [1] was determined as 31400 nM; on EP2 [2], 46 nM; on DP, 253 nM; at EP2 [3] it was 3.6 nM. For the same molecule, the Ki stood at 60 nM on EP2 [4] and 2390 nM at EP4 [5].
As to `CCCCCC=C[C@@H]1[C@@H](CCCc2ccc(C(=O)O)s2)[C@H](Cl)C[C@H]1O` [Entry 8, 5-[3-((1R,2R,3R,5R)-5-Chloro-2-hept-1-enyl-3-hydroxy-cyclopentyl)-propyl]-thiophene-2-carboxylic acid], the EC50 stood at 9100 nM at EP4 [1]; 112 nM on EP2 [2]; 337 nM on DP; 8 nM at EP2 [3]; 544 nM at EP3; 230 nM at TP. The values for the Ki at EP2 [4] and on EP4 [5] were 14 nM and 186 nM, respectively.
`CCCCCCCCC[C@@H]1[C@@H](CCCc2ccc(C(=O)O)s2)[C@H](Cl)C[C@H]1O` [Entry 5, 5-[3-((1R,2R,3R,5R)-5-Chloro-3-hydroxy-2-nonyl-cyclopentyl)-propyl]-thiophene-2-carboxylic acid]: the EC50 at EP4 [1] was greater than 10000 nM; on EP2 [2] it was 21 nM; at EP2 [3] it was 3 nM; on EP3, 6660 nM. In addition, the Ki amounted to 1.5 nM on EP2 [4] and 1230 nM at EP4 [5].
